Entries after “also recorded” stand apart in the source; their conditions may differ.
Legend:
[1] = tested on: actin network in MDA-MB-231 cells; test: Actin staining with phalloidin; type: cell-based, human
Procedure: Cells were fixed with 4% paraformaldehyde and permeabilized with PBS containing 0.1% Triton X-100. After blocking with 1% bovine serum albumin for 30 min. Cells were incubated with Alexa Fluor 488-conjugated phalloidin (Molecular Probes) to stain actin stress fibers.

Acetylated-H3K9 = test: Western blot; type: cell-based
Procedure: (§1) Protein levels were measured by Western blotting with corresponding specific primary antibodies, including those against Cdc2 p34(Santa Cruz), cyclinB1 (Santa Cruz) (FIG. 4A), Anti-Acetylated-H3K9 (Upstate), phosphorylated-H3 Ser28 (Cell signaling). GAPDH was as the loading control.

phosphorylated-H3 Ser28 = test: Western blot; type: cell-based
Procedure: as §1

cyclinB1 = test: Western blot; type: cell-based
Procedure: as §1

[2] = tested on: phosphorylated-H3 Ser28 in CA46 cells; test: Immunofluorescence assay; type: cell-based, human
Procedure: After drug treatments, CA46 cells were cytospun on the slides. Slides were fixed for 20 min with 4% paraformaldehyde in PBS (pH 7.4), and washed twice with PBS. After incubation for 20 min with 70% ethanol and washing with PBS, the cells were incubated in blocking buffer [8% bovine serum albumin (BSA) in PBS] for 1 h before incubation for 2 h with primary antibodies against phosphorylated-H3 Ser28 (Cell signaling) (FIG. 5). Slides were incubated for additional 1 h with the Alex488-conjugated secondary antibody (Alexa Fluoro 488 donkey anti-goat IgG, Molecular Probes, Invitrogen, CA). After three washes in PBS, cells were stained with 0.5 μg/mL propidium iodide (PI) and 100 μg/mL RNase A (Sigma, Mo.) for 15 min in the dark. Finally, slides were washed with PBS for three times and mounted with Vectashield anti-fade mounting media (Vector Laboratories, Inc., Burlingame, Calif.). Images were taken using a Nikon Eclipse TE-300 confocal microscope.

MCF-7 cells = test: BrdU incorporation; type: cell-based
Procedure: A number of cells (5×10^5) were pulse-labeled with 50 μmol/L BrdU (Calbiochem, La Jolla, Calif.) for 30 minutes. Cells were collected, fixed in 70% ethanol at 4° C., washed with PBS, resuspended in 3 mL 2 mol/L HCl/0.5% Triton X-100, and left at room temperature for 30 minutes. Cells were spun down after adding 6 mL 0.1 M sodium borate (pH 8.5). Pellets were washed with PBS/0.5% Tween-20 twice, then resuspended in 15 μL FITC-conjuncted anti-BrdU antibody (Becton Dickinson, Franklin Lakes, N.J.). After incubation with the anti-BrdU antibody at room temperature for 60 minutes, pellets were washed once with PBS, and resuspended in 500 μL of PI solution (50 μg/mL PI and 50 μg/mL RNase). Analyses were done with a FACScan flow cytometer (Becton Dickinson, San Jose, Calif.) (FIG. 2B).

MDA-MB-231 cells [3] = test: Cell adhesion assay; type: cell-based, human
Procedure: The effect of Lasonolide A on the extracellular matrix-induced cell adhesion was determined as follows. Fibronectin or collagen was diluted in sterile water and applied to 96-well plates overnight at 4° C. Nonspecific binding sites were blocked with 1% bovine serum albumin for 1 h at room temperature. Breast cancer MDA-MB-231 cells were serum starved for 45 min, detached with 2 mmol/L EDTA in PBS, plated in triplicate onto wells in serum-free medium with or without Lasonolide A, and allowed to adhere for 1 h at 37° C. Nonadherent cells were washed away and adherent cells were fixed with 4% paraformaldehyde and stained with 0.1% crystal violet in 2% methanol. Following extensive washing with tap water, dye was extracted with 10% acetic acid and quantified by measuring absorbance at 595 nm on a multiwell spectrophotometer (VersaMax, Molecular Devices). (FIGS. 6A, 6B, & 6D)

tumor cells = test: Premature chromosome condensation (PCC) induction, cells not specified; type: cell-based
Procedure: Burkitt's Lymphoma CA46 cells (500,000) (FIG. 1B) or breast cancer MDA-MB-231 cells (500,000) (FIG. 1A) were treated by 100 nM Lasonolide A (stock solution 100 μM in DMSO) for 1 h. Lymphocytes were treated with 200 nM Lasonolide A for 1 h. Cells were harvested with centrifuging on 2,000 rpm for 5 min at 4° C. Pellets were washed once by PBS and re-suspended in 1 mL PBS. 200 μL cells mixture were added to the chamber for cytospining. Cells were cytospun on 800 rpm for 10 min; slides were fixed in fresh-made 4% paraformaldehyde fixation for 20 min at room temperature, then moved to 70% ethanol for 20 min. Slides were stained with Propidium Iodide (“PI”) (20 μg/mL) and RNase A (100 μg/mL) for 15 min. Slides were washed with PBS for three times and mounted with Vectashield anti-fade mounting media (Vector Laboratories, Inc., Burlingame, Calif.). Images were taken using a Nikon Eclipse TE-300 confocal microscope.

CA46 cells = test: Cell cycle analysis; type: cell-based, human; details: 24 h treatment
Procedure: (§2) After treatment, cells were collected, washed twice with ice-cold PBS, and fixed overnight with 70% precooled (−20° C.) ethanol. Fixed cells were resuspended in PBS containing 0.02 mg/mL RNase A (Roche, USA) and incubated at 37° C. for 15 min. Next, the cells were stained with 0.01 mg/mL propidium iodide (Sigma) in the dark at room temperature for 10 min. The DNA content was analyzed by flow cytometry using a FACSCalibur (Becton Dickinson, Sunnyvale, Calif.) with Cellquest and Modfit LT3.0 software (Becton Dickinson) (FIGS. 1D & 2A).

MDA-MB-231 cells [4] = test: Cell cycle analysis; type: cell-based, human; details: 24 h treatment
Procedure: as §2

[5] = tested on: chromosome condensation in each phase of the cell cycle; test: Chromosome spread assay; type: cell-based
Procedure: After the induction of PCC by Lasonolide A, cells were incubated in hypotonic solution (10 mM Tris-HCl [ph 7.4], 40 mM glycerol, 20 mM NaCl, 1 mM CaCl2, 0.5 mM MgCl2) at 37° C. for 15 min. Then followed with cytospining at 1,800 rpm for 10 min and normal PI staining as above (FIG. 1E).

SMILES: C=C(CCC(C)C)COC(=O)[C@H](O)C/C=C\C[C@@H]1O[C@@H]2/C=C/C/C=C/C(C)=C\[C@H]3O[C@@H](C/C=C/C=C/C(=O)O[C@H](C2)[C@@]1(C)CO)C[C@H](O)[C@H]3C [Lasonolide A]
- actin network / cytoskeleton [1]: reorganized the cytoskeleton system; also recorded: reorganized the actin network
- acetylation of histone H3 (Acetylated-H3K9): decreased the acetylation of histone H3 Lysine 9; also recorded: decreased the acetylation of H3 (Arg9)
- H3 acetylation induced by the HDAC inhibitor SAHA (Acetylated-H3K9; with SAHA): attenuated the enhancement of H3 acetylation
- phosphorylation of H3 (Ser28) (phosphorylated-H3 Ser28): increased the phosphorylation of H3 (Ser28)
- protein level of cyclinB1 (cyclinB1): decreased the protein level of cyclinB1
- phosphorylation of H3 (Ser28), immunofluorescence [2]: showed the phosphorylation of H3 (Ser28)
- DNA replication (BrdU incorporation) (MCF-7 cells): decelerated DNA replication
- attachment of cells to collagen I (MDA-MB-231 cells [3]; collagen I): blocked; also recorded: reduced
- attachment of cells to fibronectin (MDA-MB-231 cells [3]; fibronectin): blocked; also recorded: reduced
- cell adhesion / detachment (MDA-MB-231 cells [3]; low dose, short-time treatment, nanomolar concentration): inhibited adhesion; also recorded: detached cells into suspension
- reversibility of PCC induction (tumor cells): reversible
- time to PCC induction (tumor cells; nanomolar concentrations): ≤ 1 h
- PCC induction compared with Okadaic Acid (tumor cells; tumor cells and normal human lymphocytes): more potent ability of PCC induction
- cell cycle arrest (CA46 cells): induced cell cycle arrest at G2/M phase
- cell cycle arrest (MDA-MB-231 cells [4]): induced cell cycle arrest at G2/M phase
- cell cycle phases in which PCC is induced [5]: induce PCC in each phases of cell cycle; also recorded: induce PCC in each phase of the cell cycle

Reference: patent publication US8278100B2, “Lasonolide compounds as reagents for inducing premature chromosome condensation and methods for treating disorders” (The United States of America, as Represented by the …, priority 2008, dated 2012)
